Legend:
NF-κB = assay: RANKL-induced NF-κB activation in RAW264.7 cells (gel mobility shift assay); format: cell-based, mouse; details: peptide pre-treatment 5 h, RANKL 10 nM 15 min (FIG. 4A)
Description: RAW264.7 cells were plated in 6-well plates and treated with the indicated peptides for 5 h, then treated with RANKL (10 nM) for 15 mm. Nuclear and cytoplasmic extracts were prepared and a gel mobility shift assays was performed with 8 μg of nuclear extracts as described below.
Nuclear extracts were prepared from transfected cells essentially as described (34). Equivalent amounts of nuclear protein were used in an EMSA reaction with ^32P-labeled NF-κB oligonucleotide from HIV-LTR as described (34). NF-κB activation was quantitated using a PhosphoImager and Imagequant Software.
A mutant form of the receptor activator of NF-κB which contains only the TRAF6 binding domain is sufficient to activate NF-κB (8), and a dominant negative TRAF6 inhibits RANK-mediated NF-κB activation in 293 cells (9). To investigate the effect of the TRAF6 binding peptides on RANKL-induced NF-κB activation, NF-κB activation was examined in RAW264.7 cells that activated NF-κB when stimulated with RANKL (37). RANKL-stimulated RAW264.7 cells activated NF-κB as indicated by a gel mobility shift assay (FIG. 4A).

[1] = target: T1, TRAF5 binding to the cytoplasmic domain of RANK (Mus musculus, UniProt P70191); assay: Competitive GST-pull down assay, TRAF5 binding to RANK cytoplasmic domain; details: 100 μM peptide, FLAG-TRAF5 293 cell extract (FIG. 4C)
T1 construct: expressed in transfected cells; host or cells: human 293 cells (TRAF lysate); The GST-RANK fusion was purified as previously described
T1 sequence (P70191 whole entry, the tested form may be a part): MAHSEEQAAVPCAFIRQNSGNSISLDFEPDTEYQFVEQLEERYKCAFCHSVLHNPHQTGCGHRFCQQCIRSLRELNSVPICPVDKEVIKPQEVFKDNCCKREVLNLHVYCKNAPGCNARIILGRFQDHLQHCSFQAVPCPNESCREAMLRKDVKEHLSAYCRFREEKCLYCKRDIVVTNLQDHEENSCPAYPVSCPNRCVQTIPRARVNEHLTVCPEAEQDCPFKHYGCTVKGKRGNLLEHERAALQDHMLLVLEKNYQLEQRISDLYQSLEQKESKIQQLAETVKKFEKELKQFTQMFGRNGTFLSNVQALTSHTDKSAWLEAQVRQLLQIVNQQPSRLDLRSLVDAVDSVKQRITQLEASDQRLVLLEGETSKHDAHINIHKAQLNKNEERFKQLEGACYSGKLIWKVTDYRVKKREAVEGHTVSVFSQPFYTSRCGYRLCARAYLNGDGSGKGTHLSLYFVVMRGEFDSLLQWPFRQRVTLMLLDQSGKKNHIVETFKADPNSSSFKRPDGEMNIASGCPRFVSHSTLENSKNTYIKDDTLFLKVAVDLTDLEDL
Description: (§1) Cellular extracts from human 293 cells transfected with either FLAG-TRAF2, -TRAF5, or -TRAF6 were mixed with GST or GST-RANKed in the absence or presence of 100 μM of the indicated peptides. A GST-pull down assay was performed as described below. The bound TRAFs were visualized by immunoblotting with anti-FLAG antibodies.
(§2) Equivalent amounts of GST or GST-RANK cytoplasmic domain (GST-RANKed) fusion protein attached to 20 μl of glutathione agarose beads were mixed with lysates (50 μg) from 293 cells programmed to express the epitope-tagged TRAF protein and the indicated peptides in binding buffer (20 mM TRIS, pH 8, 150 mM NaCl, 1 mM DTT, 2 mM EDTA, and 0.1% NP-40) and allowed to rotate for 1 h at 4° C. The beads were collected by centrifugation, washed three times in binding buffer, and then washed once in low-salt buffer (20 mM TRIS, pH 8, 50 mM NaCl, and 1 mM DTT). Bound proteins were eluted with addition of SDS-sample buffer and boiled. The eluted proteins were subjected to 7.5% SDS-PAGE and western blot analysis was performed with anti-FLAG antibodies.
(§3) The cytoplasmic domain of RANK interacts with many TRAF molecules, including TRAF1, 2, 3, 5, and 6 (7-9, 11, 12). While TRAF1, 2, 3, and 5 interact with the c-terminal tail of receptor activator of NF-κB, TRAF6 interacts with a membrane proximal region of the cytoplasmic domain of the receptor activator of NF-κB. […]

[2] = target: T2, TRAF6 binding to the RANK cytoplasmic domain (Mus musculus, UniProt P70196); assay: Competitive GST-pull down assay, TRAF6 binding to RANK cytoplasmic domain; details: 100 μM peptide, FLAG-TRAF6 293 cell extract, GST-RANK cytoplasmic domain (FIG. 4C)
T2 construct: expressed in transfected cells; host or cells: human 293 cells (TRAF lysate); The GST-RANK fusion was purified as previously described
T2 sequence (P70196 1-530): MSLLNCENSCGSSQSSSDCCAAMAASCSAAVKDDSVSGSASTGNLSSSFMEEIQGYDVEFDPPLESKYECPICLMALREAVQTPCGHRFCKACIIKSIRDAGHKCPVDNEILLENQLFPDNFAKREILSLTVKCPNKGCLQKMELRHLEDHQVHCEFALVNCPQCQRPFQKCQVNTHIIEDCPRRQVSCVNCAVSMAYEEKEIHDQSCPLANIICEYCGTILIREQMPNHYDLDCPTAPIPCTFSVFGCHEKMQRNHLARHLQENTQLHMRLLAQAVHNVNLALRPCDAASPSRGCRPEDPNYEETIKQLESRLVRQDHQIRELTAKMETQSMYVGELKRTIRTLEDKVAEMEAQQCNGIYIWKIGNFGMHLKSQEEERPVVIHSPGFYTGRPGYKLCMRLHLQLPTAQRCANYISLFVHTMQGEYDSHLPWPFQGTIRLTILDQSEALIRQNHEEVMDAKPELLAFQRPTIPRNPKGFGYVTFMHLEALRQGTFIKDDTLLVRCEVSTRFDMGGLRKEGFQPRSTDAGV
Description: as §1, §2, §3

RAW264.7 cells = assay: RANKL-mediated osteoclast differentiation in RAW264.7 cells (TRAP staining); format: cell-based, mouse
Description: RAW264.7 cells were plated in 12-well plates and stimulated with RANKL (30 ng/ml) for 4 days. Cells were stained for TRAP essentially as described below. Photographs were taken using a 10× objective lens.
RAW cells were plated as described in FIG. 2A and treated with RANKL in the presence of 1, 30, or 100 μM of peptides as indicated. On day 4 cells were stained and evaluated as in FIG. 2A.
RAW264.7 cells were plated in 48-well plates in triplicate and treated with RANKL in the presence of increasing amounts of the indicated peptides. After 4-5 days, the cells were stained for TRAP and the total numbers of osteoclasts were counted as described below.
Primary bone marrow monocytes (BM) or RAW264.7 cells were cultured in 48-well dishes at a density of 1×10^5 cells/well or 2×10^3 cells/well, and then treated with the indicated factors at the beginning of the culture and during a medium change on day 3. Osteoclast formation was assessed by counting the total number of multi-nucleated (>3 nuclei), TRAP-positive cells present per well between day 7 and 10 (BM) or on day 5 (RAW264.7) (30).
The mouse macrophage cell line RAW264.7 express the receptor activator of NF-κB on their cell surface and when stimulated with the receptor activator of NF-κB ligand differentiate into multi-nucleated, tartrate resistant acid phosphatase (TRAP) positive osteoclasts after 4-5 days (FIG. 2A). To determine whether L-T6DP-1 could inhibit RANKL-mediated osteoclast differentiation, RAW264.7 cells were co-cultured with increasing concentrations of either L-T6DP-1. or T6DP-1 and 30 ng/ml RANKL for 4 days.

With “L-T6DP-1: Kaposi fibroblast growth factor signal sequence hydrophobic domain attached to murine RANK peptide containing the known TRAF6 binding domain (AAVALLPAVLLALLAPRKIPTEDEYTDRPSQPST; PEPTIDE Peptide L-T6Bp-1)” the “RANKL-induced NF-κB activation” value (NF-κB) was “suppressed in a dose-dependent manner”, the “TRAF5 binding to the cytoplasmic domain of RANK” value [1] was “neither L-T6DP-1 nor L-T6DP-2 inhibited” and the “TRAF6 interaction with the cytoplasmic domain of RANK” value [2] was “inhibited”. For the same substance, the RANKL-mediated osteoclast differentiation (RAW264.7 cells; 30 ng/ml RANKL, 4 days, 1, 30 or 100 μM peptide (FIG. 2B)) was “dose-dependent inhibition”, the multi-nucleated osteoclasts (RAW264.7 cells; RANKL, 100 μM peptide, cells still TRAP positive (FIG. 2B)) was “multi-nucleated osteoclast were not observed” and the “number of TRAP positive osteoclasts” value (RAW264.7 cells; RANKL, increasing amounts of peptide, 4-5 days (FIG. 2C)) was “dose-dependent decrease”.

From US6998383B2, “Inhibitors of receptor activator of NF-κB and uses thereof” (Research Development Corporation, priority 2001, dated 2006)
